Laboratory results published in US20260265238A1, “COMPOUNDS AND PHARMACEUTICAL COMPOSITIONS THAT DEGRADE SWI/SNF-RELATED MATRIX-ASSOCIATED ACTIN-DEPENDENT REGULATOR OF CHROMATIN SUBFAMILY A” (Plexium, Inc., priority 2023, published 2026).

Columns and labels:
[1] = biological target: T1, SMARCA4-HiBiT HeLa cells (protein which is expressed from the SMARCA4 gene) (Homo sapiens, UniProt P51532); assay: SMARCA4 degradation assay (HiBiT-fusion HeLa cell line, 24 h, luminescence); type: cell-based
T1 construct: protein which is expressed from the SMARCA2 and SMARCA4 genes; host or cells: HeLa (SMARCA4-HiBiT engineered line)
Experimental: (§1) SMARCA2 and SMARCA4 Degradation Assay
(§2) Degradation of protein which is expressed from the SMARCA2 and SMARCA4 genes was monitored using engineered HiBiT-fusion HeLa cell lines from Promega. In brief, 384-well white opaque plates (Greiner) were seeded with SMARCA2-HiBiT or SMARCA4-HiBiT HeLa cells at 8,000 cells/well and incubated overnight at 37° C. to allow cell attachment. After overnight incubation, test compounds were added in a 10-point dilution series (typically 10 μM to 300 pM) using a TECAN D300e Digital Dispenser, and plates were subsequently incubated for 24 hours at 37° C. 24-hours post-treatment, protein levels were quantified with the addition of HiBiT lytic buffer, LgBiT protein, and HiBiT substrate, according to manufacturer's specifications. Plates were incubated on an orbital plate shaker for 10 minutes at room temperature. Resulting luminescent values were read out using a ClarioStar plate reader and used to construct dose-response curves and calculation of degradation DC50s (GraphPad Prism).
(§3) Activity of the tested compounds is provided in Table 4 below as follows: A=DC50<0.050 μM; B=0.05 μM<DC50<0.50 μM; C=<0.5 μM<DC50<5.0 μM; D=DC50>5.0 μM. For SMARCA2 and SMARCA4 degradation activity @1 μM, +++=>70%; ++=30-70%; +=<30%.

[2] = biological target: T2, SMARCA2-HiBiT HeLa cells (protein which is expressed from the SMARCA2 gene) (Homo sapiens, UniProt P51531); assay: SMARCA2 degradation assay (HiBiT-fusion HeLa cell line, 24 h, luminescence); type: cell-based
T2 construct: protein which is expressed from the SMARCA2 and SMARCA4 genes; host or cells: HeLa (SMARCA2-HiBiT engineered line)
Experimental: as §1, §2, §3

T1 sequence (P51532 whole entry, the tested form may be a part): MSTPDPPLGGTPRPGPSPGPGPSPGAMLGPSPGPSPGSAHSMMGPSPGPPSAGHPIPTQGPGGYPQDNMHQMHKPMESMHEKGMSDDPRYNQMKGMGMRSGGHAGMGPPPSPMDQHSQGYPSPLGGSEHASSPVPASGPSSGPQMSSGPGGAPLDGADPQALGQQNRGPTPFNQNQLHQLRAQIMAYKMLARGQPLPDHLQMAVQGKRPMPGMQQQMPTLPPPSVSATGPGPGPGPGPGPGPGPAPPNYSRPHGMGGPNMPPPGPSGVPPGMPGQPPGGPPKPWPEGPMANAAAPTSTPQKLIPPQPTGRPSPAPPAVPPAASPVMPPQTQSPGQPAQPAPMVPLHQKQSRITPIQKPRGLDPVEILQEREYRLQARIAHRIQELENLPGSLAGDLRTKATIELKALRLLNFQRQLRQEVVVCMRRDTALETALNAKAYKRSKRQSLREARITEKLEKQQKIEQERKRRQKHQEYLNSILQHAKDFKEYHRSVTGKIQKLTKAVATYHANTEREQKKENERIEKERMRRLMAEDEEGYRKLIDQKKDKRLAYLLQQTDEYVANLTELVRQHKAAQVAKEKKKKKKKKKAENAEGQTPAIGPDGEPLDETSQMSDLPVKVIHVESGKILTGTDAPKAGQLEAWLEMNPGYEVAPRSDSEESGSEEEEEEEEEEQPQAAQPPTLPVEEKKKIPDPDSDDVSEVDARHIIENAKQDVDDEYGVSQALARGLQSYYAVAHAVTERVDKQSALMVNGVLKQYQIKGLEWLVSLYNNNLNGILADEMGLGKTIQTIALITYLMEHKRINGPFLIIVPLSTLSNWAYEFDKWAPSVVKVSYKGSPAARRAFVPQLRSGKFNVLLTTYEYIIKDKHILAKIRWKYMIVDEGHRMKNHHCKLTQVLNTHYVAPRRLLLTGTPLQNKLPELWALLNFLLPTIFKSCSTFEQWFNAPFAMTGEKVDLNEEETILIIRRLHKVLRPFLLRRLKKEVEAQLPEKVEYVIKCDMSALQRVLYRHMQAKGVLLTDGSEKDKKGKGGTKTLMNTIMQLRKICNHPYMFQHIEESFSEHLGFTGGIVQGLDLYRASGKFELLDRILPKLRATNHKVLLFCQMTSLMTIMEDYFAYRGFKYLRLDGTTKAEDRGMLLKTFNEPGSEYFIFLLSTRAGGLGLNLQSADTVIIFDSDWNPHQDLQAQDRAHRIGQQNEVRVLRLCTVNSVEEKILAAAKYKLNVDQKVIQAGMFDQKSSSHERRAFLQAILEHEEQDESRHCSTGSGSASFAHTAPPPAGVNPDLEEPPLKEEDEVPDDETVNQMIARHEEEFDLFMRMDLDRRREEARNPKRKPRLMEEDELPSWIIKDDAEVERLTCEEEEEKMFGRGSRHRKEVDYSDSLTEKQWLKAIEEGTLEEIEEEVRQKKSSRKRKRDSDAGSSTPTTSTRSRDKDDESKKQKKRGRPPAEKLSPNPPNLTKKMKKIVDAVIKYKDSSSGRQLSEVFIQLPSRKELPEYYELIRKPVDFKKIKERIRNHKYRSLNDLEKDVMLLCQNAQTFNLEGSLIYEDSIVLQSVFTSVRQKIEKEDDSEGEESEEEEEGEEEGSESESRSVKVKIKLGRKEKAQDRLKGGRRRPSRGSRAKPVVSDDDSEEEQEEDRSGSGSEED
T2 sequence (P51531 whole entry, the tested form may be a part): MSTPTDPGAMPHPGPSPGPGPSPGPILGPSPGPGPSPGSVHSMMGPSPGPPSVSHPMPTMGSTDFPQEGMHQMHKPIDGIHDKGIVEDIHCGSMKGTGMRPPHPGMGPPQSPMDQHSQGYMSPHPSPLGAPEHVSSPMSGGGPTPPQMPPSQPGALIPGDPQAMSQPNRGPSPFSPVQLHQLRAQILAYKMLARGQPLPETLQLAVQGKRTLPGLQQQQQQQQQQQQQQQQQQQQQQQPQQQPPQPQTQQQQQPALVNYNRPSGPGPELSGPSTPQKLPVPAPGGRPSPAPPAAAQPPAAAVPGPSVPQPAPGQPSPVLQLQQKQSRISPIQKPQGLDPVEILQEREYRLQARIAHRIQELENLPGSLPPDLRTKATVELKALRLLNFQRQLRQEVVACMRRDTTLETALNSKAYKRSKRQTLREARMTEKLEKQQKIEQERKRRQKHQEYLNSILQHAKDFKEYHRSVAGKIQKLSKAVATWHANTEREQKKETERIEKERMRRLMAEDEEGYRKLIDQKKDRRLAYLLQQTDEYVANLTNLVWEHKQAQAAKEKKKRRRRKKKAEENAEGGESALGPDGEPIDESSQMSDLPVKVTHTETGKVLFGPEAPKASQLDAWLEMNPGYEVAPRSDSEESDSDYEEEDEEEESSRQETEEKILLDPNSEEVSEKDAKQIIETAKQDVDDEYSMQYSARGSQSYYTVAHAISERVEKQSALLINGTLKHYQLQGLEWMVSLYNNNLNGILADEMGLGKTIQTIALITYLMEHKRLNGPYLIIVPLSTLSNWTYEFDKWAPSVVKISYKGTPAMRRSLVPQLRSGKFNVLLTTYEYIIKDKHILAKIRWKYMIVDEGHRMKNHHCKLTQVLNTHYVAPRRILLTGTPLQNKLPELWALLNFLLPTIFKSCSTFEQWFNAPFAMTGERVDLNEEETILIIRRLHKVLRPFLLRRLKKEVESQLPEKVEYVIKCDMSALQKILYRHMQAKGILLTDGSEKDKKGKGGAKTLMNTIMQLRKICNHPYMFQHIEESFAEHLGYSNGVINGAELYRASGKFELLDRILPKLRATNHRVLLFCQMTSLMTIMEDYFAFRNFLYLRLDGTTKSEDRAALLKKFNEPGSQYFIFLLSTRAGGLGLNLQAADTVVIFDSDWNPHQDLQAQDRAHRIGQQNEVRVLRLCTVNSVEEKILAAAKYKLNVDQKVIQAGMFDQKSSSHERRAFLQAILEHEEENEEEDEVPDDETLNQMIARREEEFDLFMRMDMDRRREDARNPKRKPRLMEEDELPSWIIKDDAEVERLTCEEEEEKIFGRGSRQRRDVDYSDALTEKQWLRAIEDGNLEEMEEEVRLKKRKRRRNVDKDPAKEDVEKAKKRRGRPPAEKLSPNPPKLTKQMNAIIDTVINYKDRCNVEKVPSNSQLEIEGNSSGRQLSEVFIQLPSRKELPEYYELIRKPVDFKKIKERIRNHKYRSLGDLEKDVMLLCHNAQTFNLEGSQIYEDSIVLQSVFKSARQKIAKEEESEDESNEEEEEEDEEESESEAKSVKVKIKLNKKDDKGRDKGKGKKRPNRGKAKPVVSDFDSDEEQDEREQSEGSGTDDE

DC50 [1] [nM]	inhibition at 1 µM ([1]; @ 1 μM) [%]	DC50 [2] [nM]	SMARCA2 % Degradation @ 1 μM ([2]; @ 1 μM)	inhibition at 1 µM ([1]; 1 μM) [%]	SMARCA2 % Degradation @ 1 μM ([2]; 1 μM)	SMILES
50 to 500	> 70	50 to 500	++ (++=30-70%)	–	–	COCc1cc(N2CCCN(c3cc(-c4ccccc4O)nnc3N)CC2)nc(C#CCNC(=O)c2cc3ncccn3n2)n1 [Compound P-127, N-(3-(4-(4-(3-amino-6-(2-hydroxyphenyl)pyridazin-4-yl)-1,4-diazcpan-1-yl)-6-(methoxymethyl)pyrimidin-2-yl)prop-2-yn-1-yl)pyrazolo[1,5-a]pyrimidine-2-carboxamide]
50 to 500	> 70	50 to 500	+++ (+++=>70%)	–	–	Nc1nnc(-c2ccccc2O)cc1N1CCCN(c2ccnc(/C=C/CNC(=O)c3cc4ncccn4n3)n2)CC1 [Compound P-112, (E)-N-(3-(4-(4-(3-amino-6-(2-hydroxyphenyl)pyridazin-4-yl)-1,4-diazepan-1-yl)pyrimidin-2-yl)allyl)pyrazolo[1,5-a]pyrimidine-2-carboxamide]
50 to 500	> 70	50 to 500	+++ (+++=>70%)	–	–	COC(=O)NCC#Cc1nccc(N2CCCN(c3cc(-c4ccccc4O)nnc3N)CC2)n1 [Compound P-353, 3-(4-{4-[3-amino-6-(o-hydroxyphenyl)-4-pyridaziny1]-1,4-diazepan-1-y1}-2-pyrimidinyl)-2-propynylaminomethylformylate]
500 to 5000	–	500 to 5000	–	< 30	++ (++=30-70%)	C[C@@H]1CN(CC#Cc2nccc(N3CCCN(c4cc(-c5ccccc5O)nnc4N)CC3)n2)C[C@H](c2ccccc2)O1 [Compound P-380, 0-{5-[4-(2-{3-[(2R,6S)-2-methyl-6-phenyl-4-morpholinyl]-1-propynyl}-4-pyrimidinyl)-1,4-diazepan-1-yl]-6-amino-3-pyridazinyl}phenol]
50 to 500	30 to 70	50 to 500	++ (++=30-70%)	–	–	Nc1nnc(-c2ccccc2O)cc1N1CCN(c2ccnc(C#CCNC(=O)c3ccncc3)n2)CC1 [Compound P-56, N-(3-(4-(4-(3-amino-6-(2-hydroxyphenyl)pyridazin-4-yl)piperazin-1-yl)pyrimidin-2-yl)prop-2-yn-1-yl)isonicotinamide]
50 to 500	30 to 70	50 to 500	++ (++=30-70%)	–	–	Nc1nnc(-c2ccccc2O)cc1N1CCN(c2ccnc(C#CCNC(=O)c3cc4n(n3)CCOC4)n2)CC1 [Compound P-58, N-(3-(4-(4-(3-amino-6-(2-hydroxyphenyl)pyridazin-4-yl)piperazin-1-yl)pyrimidin-2-yl)prop-2-yn-1-yl)-6,7-dihydro-4H-pyrazolo[5,1-c][1,4]oxazine-2-carboxamide]
50 to 500	30 to 70	50 to 500	+++ (+++=>70%)	–	–	Nc1nnc(-c2ccccc2O)cc1N1CCCN(c2ccnc(C#CCN3CCn4nccc4C3)n2)CC1 [Compound P-146, 2-(6-amino-5-(4-(2-(3-(6,7-dihydropyrazolo[1,5-a]pyrazin-5(4H)-yl)prop-1-yn-1-yl)pyrimidin-4-yl)-1,4-diazepan-1-yl)pyridazin-3-yl)phenol]
< 50	30 to 70	50 to 500	++ (++=30-70%)	–	–	CC1CN(c2cc(-c3ccccc3O)nnc2N)CCN1c1ccnc(C#CCNC(=O)c2cc3ncccn3n2)n1 (stereo in doubt) [Compound P-81, (R)-N-(3-(4-(4-(3-amino-6-(2-hydroxyphenyl)pyridazin-4-yl)-2-methylpiperazin-1-yl)pyrimidin-2-yl)prop-2-yn-1-yl)pyrazolo[1,5-a]pyrimidine-2-carboxamide]
50 to 500	30 to 70	50 to 500	++ (++=30-70%)	–	–	Cn1nccc1OCC#Cc1nccc(N2CCCN(c3cc(-c4ccccc4O)nnc3N)CC2)n1 [Compound P-131, 2-(6-amino-5-(4-(2-(3-((1-methyl-1H-pyrazol-5-yl)oxy)prop-1-yn-1-yl)pyrimidin-4-yl)-1,4-diazepan-1-yl)pyridazin-3-yl)phenol]
50 to 500	30 to 70	50 to 500	++ (++=30-70%)	–	–	C[C@@H]1CCN(c2cc(-c3ccccc3O)nnc2N)CCN1c1nc(C#CCN2C(=O)CC[C@@H]2C)ncc1F [Compound P-176, (S)-1-[3-(4-{(R)-4-[3-amino-6-(o-hydroxyphenyl)-4-pyridazinyl]-7-methyl-1,4-diazepan-1-yl}-5-fluoro-2-pyrimidinyl)-2-propynyl]-5-methyl-2-pyrrolidinone]
50 to 500	< 30	500 to 5000	+ (+=<30%)	–	–	CC1(C)CN(c2ccnc(C#CCNC(=O)c3cc4ncccn4n3)n2)CCN1c1cc(-c2ccccc2O)nnc1N [Compound P-83, N-(3-(4-(4-(3-amino-6-(2-hydroxyphenyl)pyridazin-4-yl)-3,3-dimethylpiperazin-1-yl)pyrimidin-2-yl)prop-2-yn-1-yl)pyrazolo[1,5-a]pyrimidine-2-carboxamide]
50 to 500	30 to 70	50 to 500	+++ (+++=>70%)	–	–	C[C@@H]1CCN(c2cc(-c3ccccc3O)nnc2N)CCN1c1ccnc(C#CCN2CC3(CCC3(F)F)C2)n1 [Compound P-201, o-{5-[(R)-4-(2-{3-(5,5-difluoro-2-aza-2-spiro[3.3]hcptyl)-1-propynyl}-4-pyrimidinyl)-5-methyl-1,4-diazepan-1-yl]-6-amino-3-pyridazinyl}phenol]
500 to 5000	30 to 70	50 to 500	++ (++=30-70%)	–	–	CN1C(=O)NC2(CCN(CC#Cc3nccc(N4CCCN(c5cc(-c6ccccc6O)nnc5N)CC4)n3)CC2)C1=O [Compound P-362, 8-[3-(4-{4-[3-amino-6-(o-hydroxyphenyl)-4-pyridazinyl]-1,4-diazepan-1-yl}-2-pyrimidinyl)-2-propynyl]-3-methyl-1,3,8-triaza-2,4-spiro [4.5]decanedione]
50 to 500	> 70	50 to 500	++ (++=30-70%)	–	–	CCOc1cc(N2CCCN(c3cc(-c4ccccc4O)nnc3N)CC2)nc(C#CCNC(=O)c2cc3ncccn3n2)n1 [Compound P-124, N-(3-(4-(4-(3-amino-6-(2-hydroxyphenyl)pyridazin-4-yl)-1,4-diazepan-1-yl)-6-ethoxypyrimidin-2-yl)prop-2-yn-1-yl)pyrazolo[1,5-a]pyrimidine-2-carboxamide]

SMILES	DC50 [1] [nM]	inhibition at 1 µM ([1]; @ 1 μM) [%]	DC50 [2] [nM]	SMARCA2 % Degradation @ 1 μM ([2]; @ 1 μM)	inhibition at 1 µM ([1]; 1 μM) [%]	SMARCA2 % Degradation @ 1 μM ([2]; 1 μM)
CC(C)(C)OC(=O)N1C2CCC1CN(CC#Cc1nccc(N3CCCN(c4cc(-c5ccccc5O)nnc4N)CC3)n1)C2 [Compound P-358, tert-butyl 3-[3-(4-{4-[3-amino-6-(o-hydroxyphenyl)-4-pyridazinyl]-1,4-diazepan-1-y1}-2-pyrimidinyl)-2-propynyl]-3,8-diazabicyclo[3.2.1]octane-8-carboxylate]	500 to 5000	30 to 70	500 to 5000	++ (++=30-70%)	–	–
CN(C)CC#Cc1nccc(N2C3CC2CN(c2cc(-c4ccccc4O)nnc2N)C3)n1 [Compound P-206, o-[6-amino-5-(6-{2-[3-(dimethylamino)-1-propynyl]-4-pyrimidinyl}-3,6-diazabicyclo[3.1.1]hcpt-3-yl)-3-pyridazinyl]phenol]	50 to 500	> 70	< 50	+++ (+++=>70%)	–	–
CC1(F)CCN(CC#Cc2nccc(N3CC4CCC(C3)N4c3cc(-c4ccccc4O)nnc3N)n2)C1 (stereo not shown) [Compound P-193, o-[6-amino-5-(3-{2-[3-(3-fluoro-3-methyl-1-pyrrolidinyl)-1-propynyl]-4-pyrimidinyl}-3,8-diazabicyclo[3.2.1]oct-8-yl)-3-pyridazinyl]phenol]	50 to 500	< 30	50 to 500	++ (++=30-70%)	–	–
CC(C#Cc1nccc(N2C3CCC2CN(c2cc(-c4ccccc4O)nnc2N)C3)n1)NC(=O)c1cc2ncccn2n1 (stereo not shown) [Compound P-97, N-(4-(4-(3-(3-amino-6-(2-hydroxyphenyl)pyridazin-4-yl)-3,8-diazabicyclo[3.2.1]octan-8-yl)pyrimidin-2-yl)but-3-yn-2-yl)pyrazolo|1,5-a|pyrimidine-2-carboxamide]	50 to 500	30 to 70	50 to 500	++ (++=30-70%)	–	–
C[C@@H]1CCN(c2cc(-c3ccccc3O)nnc2N)CCN1c1ccnc(C#CCN2[C@@H]3CC[C@H]2C[C@@H](O)C3)n1 [Compound P-261, 8-[3-(4-{(R)-4-[3-amino-6-(o-hydroxyphenyl)-4-pyridazinyl]-7-methyl-1,4-diazepan-1-yl}-2-pyrimidinyl)-2-propynyl]-8-azabicyclo[3.2.1]octan-3-ol]	50 to 500	30 to 70	50 to 500	+++ (+++=>70%)	–	–
